These results are taken from patent US8026368B2, “Hydrazide compounds and thrombopoietin receptor activators” (Nissan Chemical Industries, Ltd., priority 2005, dated 2011).

For the first test, the target named is T1, human thrombopoietin receptor (c-mpl) (Homo sapiens, UniProt P40238).
T1 construct: expressed in transfected cells
T1 sequence (P40238 26-635): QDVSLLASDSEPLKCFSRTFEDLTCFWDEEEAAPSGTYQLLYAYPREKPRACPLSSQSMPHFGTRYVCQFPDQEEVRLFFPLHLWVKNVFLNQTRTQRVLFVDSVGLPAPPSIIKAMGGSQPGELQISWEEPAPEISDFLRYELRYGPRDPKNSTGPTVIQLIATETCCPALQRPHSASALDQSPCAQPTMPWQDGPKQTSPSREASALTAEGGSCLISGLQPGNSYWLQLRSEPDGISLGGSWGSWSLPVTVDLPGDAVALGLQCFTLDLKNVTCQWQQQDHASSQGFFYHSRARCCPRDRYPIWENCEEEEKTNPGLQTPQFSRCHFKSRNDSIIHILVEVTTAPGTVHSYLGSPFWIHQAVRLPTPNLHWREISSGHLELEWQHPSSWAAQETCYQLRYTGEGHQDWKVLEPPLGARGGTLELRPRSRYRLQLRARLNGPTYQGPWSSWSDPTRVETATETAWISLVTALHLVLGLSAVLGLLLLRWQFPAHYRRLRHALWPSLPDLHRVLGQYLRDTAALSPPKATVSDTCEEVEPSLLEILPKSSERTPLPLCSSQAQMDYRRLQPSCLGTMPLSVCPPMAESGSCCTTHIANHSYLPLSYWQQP
Assay: not given
Particulars: cell line characterisation, Takatoku et al.; cited from earlier work.
For the compound “TPO: Thrombopoietin (Pepro Tech EC), a cytokine consisting of 332 amino acids; reference stimulus at 10 ng/mL”, the “Proliferation of UT7/EPO-mpl cell line in response to TPO” value was “stimulated”.

For another test, the system named is UT7/EPO.
Assay: not given
Particulars: cell line characterisation, Takatoku et al.; cited from earlier work.
As for “TPO: Thrombopoietin (Pepro Tech EC), a cytokine consisting of 332 amino acids; reference stimulus at 10 ng/mL”, the “Response of mother cell line UT7/EPO to TPO” value is listed as “no response”.

A further test has as its target T1, human thrombopoietin receptor (c-mpl). Briefly: Stimulation of proliferation of thrombopoietin-dependent cell line UT7/EPO-mpl (WST-8). Type of test: cell-based. To be noted: human leukemic cell line UT-7/EPO-mpl, 4 days incubation, WST-8, relative to 10 ng/mL TPO; read-out: EC50 (concentration that yields a growth rate corresponding to 50% of the growth observed in the presence of 10 ng/mL TPO) (converted). The protocol:
The responses of thrombopoietin receptor to the compounds of the present invention prepared in the Synthetic Examples were assayed using a human leukemic cell line, UT7/EPO-mpl.
UT7/EPO-mpl is a stable transformed cell line obtained by introducing into human leukemic cell line UT7/EPO a vector that induces expression of human thrombopoietin receptor (c-mpl) under control of cytomegalovirus immediate-early promoter by the method of Takatoku et al. (J. Biol. Chem., 272:7259-7263 (1997)). […] These two cell lines were subcultured in IMDM (GIBCO) containing 10% fetal bovine serum (Thermo Electron or BioWest) using a CO2 incubator (5% CO2, 37° C.).
The subcultured cells described above were washed twice with PBS and suspended in IMDM containing 10% fetal bovine serum at a cell density of 6×10^4 cells/ml. The cell suspension was transferred to a 96-well tissue culture plate (CORNING) in 100-μl aliquots. Then either thrombopoietin (Pepro Tech EC) or the compounds of the Synthetic Examples dissolved in dimethyl sulfoxide were diluted 83-fold with IMDM containing 10% fetal bovine serum and added to the aforementioned cell suspension in 20-μl aliquots. The cell suspension was incubated in a CO2 incubator (5% CO2, 37° C.) for 4 days. Cell proliferation was assayed using WST-8 reagent (Kishida Chemical Co., Ltd.) according to instructions by the manufacturer. A 10-μl aliquot of 5 mM WST-8 reagent solution was added to each well of the tissue culture plate, and the plate was incubated at 37° C. for 4 hours. The formazan pigment generated was detected by measuring the absorbance at 450 nm with a 96-well microplate reader (Nihon Molecular Devices, Spectramax 190).
The concentration of each compound that yields a growth rate corresponding to 50% of the growth of human leukemic cell line UT-7/EPO-mpl observed in the presence of 10 ng/mL TPO (EC50) in the test on the compounds of the Synthetic Examples in Assay Example 1 are shown in Table 16.
Turning to `CC1=NN(c2ccc(C(F)(F)F)cc2)C(=O)/C1=C(/C)NNC(=O)c1ccc(C(=O)N2CC(O)C(O)C2)s1` (stereo not shown) [Example 30], the EC50 is 5.02 nM. In the case of `CC1=NN(c2ccc(C(F)(F)F)cc2)C(=O)/C1=C(/C)NNC(=O)c1ccc(C(=O)NC(C)C)s1` [Example 28], the EC50 was 0.871 nM.

For the compound `CNC(=O)c1ccc(C(=O)NN/C(C)=C2\C(=O)N(c3ccc(C(C)(C)C)cc3)N=C2C)s1` [Example 25], the EC50 was 0.661 nM. The same measure, in the same setting: the same measure for `CC1=NN(c2ccc(C(C)(C)C)cc2)C(=O)/C1=C(/C)NNC(=O)c1ccc(C(=O)N2CCC(N(C)C)C2)s1` (stereo not shown) [Example 18]: 5.03 nM. On the same count and under the same terms, the value for `CC1=NN(c2ccc(C(C)(C)C)cc2)C(=O)/C1=C(/C)NNC(=O)c1ccc(C(=O)NCc2cccnc2)s1` [Example 20] was 0.528 nM.

Turning to `CC1=NN(c2ccc(C(C)(C)C)cc2)C(=O)/C1=C(/C)NNC(=O)c1ccc(C(=O)N2CCC(N3CCCC3)CC2)s1` [Example 17], the EC50 was 3.99 nM.

With `COC1CN(C(=O)c2ccc(C(=O)NN/C(C)=C3\C(=O)N(c4ccc(C(C)(C)C)cc4)N=C3C)s2)CC1OC` (stereo not shown) [Example 22], the EC50 was 5.78 nM.

In the case of `CC1=NN(c2ccc(C)c(C)c2)C(=O)/C1=C(/C)NNC(=O)c1ccc(C(=O)NN(C)C)s1` [Example 5], the EC50 was 6.16 nM.

For the compound `CC1=NN(c2ccc(C(C)(C)C)cc2)C(=O)/C1=C(/C)NNC(=O)c1ccc(C(=O)NN(C)C)s1` [Example 16], the EC50 was 3.94 nM. Still for that read-out and setting: the same measure for `CC1=NN(c2ccc(C(C)(C)C)cc2)C(=O)/C1=C(/C)NNC(=O)c1ccc(C(=O)NCc2ccncc2)s1` [Example 12]: 0.528 nM; for `CC1=NN(c2ccc(C)c(C)c2)C(=O)/C1=C(/C)NNC(=O)c1ccc(C(=O)N2CCCC2)s1` [Example 4]: 7.52 nM; for `CC1=NN(c2ccc(Cl)c(Cl)c2)C(=O)/C1=C(/C)NNC(=O)c1ccc(C(=O)NCc2cccnc2)s1` [Example 43]: 4.6 nM. On the same count and under the same terms, the value for `CNC(=O)c1ccc(C(=O)NN/C(C)=C2\C(=O)N(c3ccc(C)c(C)c3)N=C2C)s1` [Example 10] was 5.17 nM. Same read-out and setting: the value for `CC1=NN(c2ccc(C)c(C)c2)C(=O)/C1=C(/C)NNC(=O)c1ccc(C(=O)N2CC(O)C(O)C2)s1` (stereo not shown) [Example 3] was 5.63 nM; that for `CC1=NN(c2ccc(C(C)(C)C)cc2)C(=O)/C1=C(/C)NNC(=O)c1ccc(C(=O)NCCC(=O)O)s1` [Example 24] was 5.86 nM; that for `CC1=NN(c2ccc(C)c(C)c2)C(=O)/C1=C(/C)NNC(=O)c1ccc(C(=O)NCc2cccnc2)s1` [Example 8] was 0.676 nM.

`CC1=NN(c2ccc(Cl)c(Cl)c2)C(=O)/C1=C(/C)NNC(=O)c1ccc(C(=O)N2CC(O)C(O)C2)s1` (stereo not shown) [Example 39]: the EC50 is 3.9 nM.

In the case of `CC1=NN(c2ccc(C)c(C)c2)C(=O)/C1=C(/C)NNC(=O)c1ccc(C(=O)NCc2ccncc2)s1` [Example 2], the EC50 was 1.63 nM. Same read-out and setting: the value for `CC1=NN(c2ccc(C(C)(C)C)cc2)C(=O)/C1=C(/C)NNC(=O)c1ccc(C(=O)NC(C)C)s1` [Example 11] was 1.16 nM. `CC1=NN(c2ccc(Cl)c(Cl)c2)C(=O)/C1=C(/C)NNC(=O)c1ccc(C(=O)NC(C)C)s1` [Example 37]: the EC50 is 5.46 nM. On the same count and under the same terms, the same measure for `CC1=NN(c2ccc(C(C)(C)C)cc2)C(=O)/C1=C(/C)NNC(=O)c1ccc(C(=O)N2CCCC2)s1` [Example 15]: 5.27 nM. Still for that read-out and setting: the value for `CC1=NN(c2ccc(C)c(C)c2)C(=O)/C1=C(/C)NNC(=O)c1ccc(C(=O)NCc2ccccn2)s1` [Example 7] was 3.58 nM. On the same count and under the same terms, the same measure for `CC1=NN(c2ccc(C)c(C)c2)C(=O)/C1=C(/C)NNC(=O)c1ccc(C(=O)NCCC(=O)O)s1` [Example 9]: 8.89 nM. Regarding `COCCNC(=O)c1ccc(C(=O)NN/C(C)=C2\C(=O)N(c3ccc(C(C)(C)C)cc3)N=C2C)s1` [Example 26], the EC50 is 1.23 nM. Consider `CC1=NN(c2ccc(C(C)(C)C)cc2)C(=O)/C1=C(/C)NNC(=O)c1ccc(C(=O)NCc2ccccn2)s1` [Example 19], for which the EC50 is 2.64 nM. As to `CC1=NN(c2ccc(Cl)c(Cl)c2)C(=O)/C1=C(/C)NNC(=O)c1ccc(C(=O)NN(C)C)s1` [Example 40], the EC50 is 5.65 nM. On the same count and under the same terms, the value for `CCN(CC)C(=O)c1ccc(C(=O)NN/C(C)=C2\C(=O)N(c3ccc(C(F)(F)F)cc3)N=C2C)s1` [Example 31] was 8.28 nM.

As to `CC1=NN(c2ccc(C(C)(C)C)cc2)C(=O)/C1=C(/C)NNC(=O)c1ccc(C(=O)N2CC(O)C(O)C2)s1` (stereo not shown) [Example 13], the EC50 was 1.01 nM. With `CC1=NN(c2ccc(C(C)(C)C)cc2)C(=O)/C1=C(/C)NNC(=O)c1ccc(C(=O)NCC(=O)O)s1` [Example 23], the EC50 was 6.23 nM. On the same count and under the same terms, the same measure for `CC1=NN(c2ccc(C(C)(C)C)cc2)C(=O)/C1=C(/C)NNC(=O)c1ccc(C(=O)NN2CCOCC2)s1` [Example 21]: 1.2 nM; for `CC1=NN(c2ccc(C(F)(F)F)cc2)C(=O)/C1=C(/C)NNC(=O)c1ccc(C(=O)NCc2ccncc2)s1` [Example 29]: 1.59 nM; for `CC1=NN(c2ccc(Cl)c(Cl)c2)C(=O)/C1=C(/C)NNC(=O)c1ccc(C(=O)NCc2ccccn2)s1` [Example 42]: 5.34 nM. Same read-out and setting: the same measure for `CC1=NN(c2ccc(C(F)(F)F)cc2)C(=O)/C1=C(/C)NNC(=O)c1ccc(C(=O)N2CCC(N(C)C)C2)s1` (stereo not shown) [Example 35]: 6.93 nM; for `CC1=NN(c2ccc(Cl)c(Cl)c2)C(=O)/C1=C(/C)NNC(=O)c1ccc(C(=O)N2CCC(N3CCCC3)CC2)s1` [Example 41]: 4.75 nM; for `CC1=NN(c2ccc(C(F)(F)F)cc2)C(=O)/C1=C(/C)NNC(=O)c1ccc(C(=O)NN(C)C)s1` [Example 33]: 4.45 nM. The same measure, in the same setting: the same measure for `CC1=NN(c2ccc(C(F)(F)F)cc2)C(=O)/C1=C(/C)NNC(=O)c1ccc(C(=O)N2CCC(N3CCCC3)CC2)s1` [Example 34]: 4.25 nM. For the compound `CCN(CC)C(=O)c1ccc(C(=O)NN/C(C)=C2\C(=O)N(c3ccc(C(C)(C)C)cc3)N=C2C)s1` [Example 14], the EC50 is 11.7 nM. For `CC1=NN(c2ccc(C(F)(F)F)cc2)C(=O)C1=C(C)NNC(=O)c1ccc(C(=O)N2CCCC2)s1` [Example 32], the EC50 is 6.53 nM. Still for that read-out and setting: the same measure for `CCCNC(=O)c1ccc(C(=O)NN/C(C)=C2\C(=O)N(c3ccc(C(C)(C)C)cc3)N=C2C)s1` [Example 27]: 1.6 nM. Consider `CC1=NN(c2ccc(Cl)c(Cl)c2)C(=O)/C1=C(/C)NNC(=O)c1ccc(C(=O)NCc2ccncc2)s1` [Example 38], for which the EC50 is 4.97 nM. As to `COC1CN(C(=O)c2ccc(C(=O)NN/C(C)=C3\C(=O)N(c4ccc(Cl)c(Cl)c4)N=C3C)s2)CC1OC` (stereo not shown) [Example 44], the EC50 was 11.3 nM.
